Molecular target: T1, X-linked inhibitor of apoptosis protein (XIAP) (Homo sapiens, UniProt P98170)
T1 construct: GST-tagged XIAP-BIR3 domain
Assay: fluorescence polarization displacement of 5-FAM Smac/Diablo peptide from recombinant BIR3
Format: binding

T1 sequence (P98170 241-356 limits assumed): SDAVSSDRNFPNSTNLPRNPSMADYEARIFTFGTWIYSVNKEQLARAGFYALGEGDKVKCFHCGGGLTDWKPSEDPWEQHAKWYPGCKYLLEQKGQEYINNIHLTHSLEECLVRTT

Row | Structure (SMILES) | IC50
1 | CCCCCCCCCCCC1=C(O)C(=O)C=C(O)C1=O [Embelin] | 3.1 ± 0.6 µM
2 | O=c1cccccc1O [Tropolone] | 83.1 ± 6.9 µM
3 | CC(C)c1cccc(=O)c(O)c1 [β-thujaplicin] | 58.5 ± 2.8 µM
4 | CC(C)c1ccc(O)c(=O)cc1 [γ-thujaplicin] | 56.2 ± 2.9 µM

From publication PMC8229775, “β-Thujaplicin Enhances TRAIL-Induced Apoptosis via the Dual Effects of XIAP Inhibition and Degradation in NCI-H460 Human Lung Cancer Cells” (Medicines, 2021)
